From patent US20080220497A1, “Modulation of protein functionalities” (priority 2003, published 2008)

Experiments:
p38-alpha kinase = p38-alpha kinase (Homo sapiens, UniProt Q16539); settings: time-dependent if IC50 values decrease with reaction time (more than two-fold in four hours)
Description: This dilution can be done automatically on a Tecan (or similar) robotic workstation or performed manually. • 3. […] This step can be performed automatically on a Tecan (or similar) robotic workstation or performed manually. • 4. Incubate at 30° C. or room temp for 2 h, depending on protein stability. • 5. Read at emission wavelength 420 nm upon excitation at 340 nm.

c-Abl kinase [1] = biological target: T1, c-Abl kinase (Homo sapiens, UniProt P00519); assay: Fluorescence affinity assay for Abl kinase (PD 166326 fluoroprobe); assay type: binding; settings: read-out: EC50 for accelerating the binding of fluoroprobe PD 166326; c-Abl kinase; early time-point binding
T1 construct: other: c-Abl kinase
Description: (§1) Tris buffer: 90 mM Tris-HCl buffer, pH 7.5, containing 0.2% octyl-glucoside • 4. […] Polarstar Optima plate reader (BMG) or equivalent
(§2) B. Procedure: • 1. Make Solution A containing 80 nM Abl in the Tris buffer • 2. Serially dilute test compounds in Solution A (50 uL per well) • 3. Incubate the plate at room temp for 0.5 h • 4.
(§3) Abl kinase was preincubated with test compounds for […] in the absence of fluoroprobe. […] By comparison of RFU (relative fluorescence units) values with that of a control (in the absence of small molecule modulators), the percentage of modulation at each concentration of the small molecules was calculated.

Abl kinase = assay: Thermal denaturation of Abl kinase; assay type: binding, human; settings: 1 μM Abl kinase, 20 μM small molecule
Description: (§4) Denaturation was monitored by measuring the absolute absorbance of the solutions at an appropriate wavelength (typically 230 nm and 240 nm) as a function of temperature. As the protein became denatured, additional UV absorbing functional groups became exposed causing an increase in absorbance at the melting temperature. […] The thermal data were collected using Agilent spectrophotometers and ChemStation UV/Vis Thermal Denaturation software.
5 μL of 40 μM Abl kinase was mixed with 195 μL of the small molecule/buffer solution. The final concentration was 1 μM Abl kinase and 20 μM small molecule. The final protein and buffer solution was mixed gently using a pipetter to minimize denaturing due to over aggressive mixing. The final solution was transferred to a 50 μL cuvette for analysis.
Test solutions containing only the Abl kinase were prepared as follows: 5 μL of 40 μM Abl kinase was mixed with 195 μL Buffer to give a concentration of 1 μM Abl kinase in Buffer. The protein and buffer solution was mixed gently using a pipetter to minimize denaturing due to over aggressive mixing. The final solution was transferred to a 50 μL cuvette for analysis.
(§5) A first derivative calculation with data smoothing was applied to the resulting data to report the point of inflection as the melting temperature.

V599E Braf kinase = biological target: T2, V599E Braf kinase (Homo sapiens, UniProt P15056, V600E); assay: Thermal denaturation of oncogenic V599E Braf kinase; assay type: binding; settings: 1.4 μM V599E Braf kinase, 20 μM small molecule; read-out: ΔTm (° C.) relative to unphosphorylated B-Raf(V599E)
T2 construct: 6×His-tag (N); made in house; host or cells: Sf9 insect cells (baculovirus)
Description: as §4
(§6) The final solution was transferred to a 50 μL cuvette for analysis.
as §6, §5

c-Abl kinase [2] = assay: Fluorescence affinity assay for Abl kinase (PD 166326 fluoroprobe); assay type: binding, human; settings: 100 nM PD 166326, 40 nM Abl kinase
Description: as §1, §2, §3

Phospho-p38-alpha kinase = biological target: T3, Phospho-p38-alpha kinase (Homo sapiens, UniProt Q16539); assay: Spectrophotometric assay for phospho-p38-alpha kinase; settings: p38-alpha kinase biochemical assay
T3 construct: 6xHis ([…], seen only in the listing) (C); purchased Roche Applied Diagnostics
Description: Spectrophotometric Assay for Phospho-p38-alpha Kinase
NADH (Sigma): 5.6 mM • 5. Phosphoenol pyruvate (Sigma): 20 mM • 6. […] ATP (20 mM) • 8. […] Polarstar Optima plate reader (BMG)
IC50 determinations were performed using a serial dilution scheme to dilute inhibitor in DMSO, followed by further dilution in reaction buffer, and finally mixing with Mixture 1 (Table 29) which contains all the enzymes. The dilution procedure ensured that the test compound at various concentrations was properly dissolved into the buffer and enzyme reaction mixture.
Prepare Mixture 1 as described in Table 29 (use within 30 min) • 3. Mix the diluted compound with Mixture 1 following Step 3 of Table 28 • 4. Incubate the 384-well plate at 30° C. for 2 hours • 5. Add 1 μL of 30 mM ATP into each well and mix well • 6. Read on the microplate reader with one point every min for at least 2.5 hours at 30° C.
A linear regression was applied to data collected from t=1.5 hr to 2.5 hr to obtain the reaction rate for each data set. The data were approximately linear within this time frame. Percentage of inhibition was calculated by comparison of the rate in the presence of a compound with that of the control. IC50 values were calculated from a series of % inhibition values determined at a range of inhibitor concentrations using GraphPad Prism (version 4).

[3] = biological target: T4, doubly phosphorylated p38-alpha kinase (Homo sapiens, UniProt Q16539); assay: Fluorescence affinity assay, doubly phosphorylated p38-alpha kinase; assay type: binding; settings: ~24 nM enzyme; 1.0 uM SKF-86002; read-out: FP IC50 P-p38-alpha
T4 construct: 6xHis ([…], seen only in the listing) (C); purchased Roche Applied Diagnostics
Excerpt: (§7) This fluorescence affinity assay is utilized in an affinity-based screen to identify small molecules which bind into switch control pockets of protein kinases. Binding of small molecule switch inhibitors displaces the switch control ligand phenylalanine of the DFG motif into an orientation which sterically blocks the ATP pocket. Such inhibitor-induced blockade of the ATP pocket is registered as an inhibition of binding of the fluoroprobe into the ATP pocket.
(§8) • 1. p38-alpha kinase • a. […] Polarstar Optima plate reader (BMG)
• 1. […] This dilution can be done automatically on a Tecan (or similar) robotic workstation or performed manually. • 3. Mix Solution A with the diluted compound solutions following Step 3 of Table 22. This step can be performed automatically on a Tecan (or similar) robotic workstation or performed manually. • 4. Incubate at 30° C. or room temp for 2 h, depending on protein stability. • 5. Read at emission wavelength 420 nm upon excitation at 340 nm. […]
(§9) A ratio greater than 1.0 indicates a preference for inhibiting the unphosphorylated form of p38-alpha kinase relative to the doubly phosphorylated form. A ratio less than 1.0 indicates a preference for inhibiting the doubly phosphorylated form of p38-alpha kinase relative to the unphosphorylated form.

[4] = biological target: T5, unphosphorylated p38-alpha kinase (Homo sapiens, UniProt Q16539, DEL261-261); assay: Thermal denaturation of unphosphorylated p38-alpha kinase; assay type: binding; settings: […] p38-alpha kinase, 15 μM small molecule
T5 construct: 48 (6×His-TEV tag, full length); 6×His-TEV tag (N); purchased Decode Genetics, Inc; host or cells: E. coli
Excerpt: as §4
The final protein and buffer solution was mixed gently using a pipetter to minimize denaturing due to over aggressive mixing. The final solution was transferred to a 50 μL cuvette for analysis.
as §6, §5

[5] = biological target: T5, unphosphorylated p38-alpha kinase; assay: Fluorescence affinity assay, unphosphorylated p38-alpha kinase; assay type: binding
Excerpt: as §7, §8
• 1. […] This dilution can be done automatically on a Tecan (or similar) robotic workstation or performed manually. • 3. Mix Solution A with the diluted compound solutions following Step 3 of Table 22. This step can be performed automatically on a Tecan (or similar) robotic workstation or performed manually. • 4. Incubate at 30° C. or room temp for 2 h, depending on protein stability. • 5. Read at emission wavelength 420 nm upon excitation at 340 nm.
The reaction was initiated by addition of the enzyme. […] By comparison of RFU (relative fluorescence units) values with that of a control (in the absence of small molecule modulators), the percentage of inhibition at each concentration of the small molecules was calculated. IC50 values for the small molecule modulators were calculated from the % inhibition values obtained at a range of concentrations of the small molecule modulators using Prism (available from GraphPad, Inc.). When time-dependent inhibition was assessed, the plate was read at multiple reaction times such as 0.5, 1, 2, 3, 4 and 6 hours. The IC50 values were calculated at each time point. An inhibition was assigned as time-dependent if the IC50 values decrease with the reaction time (more than two-fold in four hours).
as §9

[6] = biological target: T4, doubly phosphorylated p38-alpha kinase; assay: Thermal denaturation of doubly phosphorylated p38-alpha kinase; assay type: binding; settings: 0.5 μM p38-alpha kinase, 20 μM small molecule
Description: as §4
The final concentration was 0.5 μM p38-alpha kinase and 20 μM small molecule. The final protein and buffer solution was mixed gently using a pipetter to minimize denaturing due to over aggressive mixing. The final solution was transferred to a 50 μL cuvette for analysis.
The protein and buffer solution was mixed gently using a pipetter to minimize denaturing due to over aggressive mixing. The final solution was transferred to a 50 μL cuvette for analysis.
as §5

T5 sequence (Q16539 with tags, fused parts or gaps DEL261-261): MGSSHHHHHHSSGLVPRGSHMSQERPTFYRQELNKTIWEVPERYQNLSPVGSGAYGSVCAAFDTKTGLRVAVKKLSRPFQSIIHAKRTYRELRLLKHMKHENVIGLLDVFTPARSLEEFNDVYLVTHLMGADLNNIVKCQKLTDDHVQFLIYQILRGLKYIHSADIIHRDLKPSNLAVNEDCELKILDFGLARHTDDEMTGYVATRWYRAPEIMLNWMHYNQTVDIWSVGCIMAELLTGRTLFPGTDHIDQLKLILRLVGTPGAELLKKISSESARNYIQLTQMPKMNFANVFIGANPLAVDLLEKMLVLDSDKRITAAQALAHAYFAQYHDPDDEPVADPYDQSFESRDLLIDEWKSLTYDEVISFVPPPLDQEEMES
T1 sequence (P00519 1-1149 isoform P00519-2): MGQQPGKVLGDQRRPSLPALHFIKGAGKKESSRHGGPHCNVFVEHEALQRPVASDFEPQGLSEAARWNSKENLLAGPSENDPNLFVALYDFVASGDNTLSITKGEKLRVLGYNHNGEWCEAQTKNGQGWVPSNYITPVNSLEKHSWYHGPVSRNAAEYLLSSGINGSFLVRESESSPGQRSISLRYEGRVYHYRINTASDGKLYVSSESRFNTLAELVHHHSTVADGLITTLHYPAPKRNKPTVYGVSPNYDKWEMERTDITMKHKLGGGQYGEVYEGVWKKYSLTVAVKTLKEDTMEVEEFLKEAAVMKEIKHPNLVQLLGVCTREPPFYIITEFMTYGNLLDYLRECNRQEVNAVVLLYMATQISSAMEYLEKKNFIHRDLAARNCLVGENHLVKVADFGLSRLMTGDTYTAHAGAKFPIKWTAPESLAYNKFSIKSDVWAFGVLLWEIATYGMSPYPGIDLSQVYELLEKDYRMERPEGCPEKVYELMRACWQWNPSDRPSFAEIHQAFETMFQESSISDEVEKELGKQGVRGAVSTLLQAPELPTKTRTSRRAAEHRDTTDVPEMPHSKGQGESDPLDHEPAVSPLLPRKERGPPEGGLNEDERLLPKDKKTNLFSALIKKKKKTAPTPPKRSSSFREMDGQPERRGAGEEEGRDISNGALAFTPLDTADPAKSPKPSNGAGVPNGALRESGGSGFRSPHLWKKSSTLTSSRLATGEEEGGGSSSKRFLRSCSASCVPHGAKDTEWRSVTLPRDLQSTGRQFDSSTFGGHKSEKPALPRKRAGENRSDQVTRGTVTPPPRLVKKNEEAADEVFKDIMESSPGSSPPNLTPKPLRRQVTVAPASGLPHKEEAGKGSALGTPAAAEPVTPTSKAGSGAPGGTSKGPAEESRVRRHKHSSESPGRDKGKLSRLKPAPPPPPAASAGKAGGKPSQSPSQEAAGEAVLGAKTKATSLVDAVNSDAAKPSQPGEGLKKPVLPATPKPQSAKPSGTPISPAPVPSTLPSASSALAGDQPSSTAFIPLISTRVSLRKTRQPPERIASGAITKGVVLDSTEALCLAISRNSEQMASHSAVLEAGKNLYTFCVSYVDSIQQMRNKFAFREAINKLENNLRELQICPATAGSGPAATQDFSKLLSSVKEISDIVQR
T4 sequence (Q16539 with tags, fused parts or gaps): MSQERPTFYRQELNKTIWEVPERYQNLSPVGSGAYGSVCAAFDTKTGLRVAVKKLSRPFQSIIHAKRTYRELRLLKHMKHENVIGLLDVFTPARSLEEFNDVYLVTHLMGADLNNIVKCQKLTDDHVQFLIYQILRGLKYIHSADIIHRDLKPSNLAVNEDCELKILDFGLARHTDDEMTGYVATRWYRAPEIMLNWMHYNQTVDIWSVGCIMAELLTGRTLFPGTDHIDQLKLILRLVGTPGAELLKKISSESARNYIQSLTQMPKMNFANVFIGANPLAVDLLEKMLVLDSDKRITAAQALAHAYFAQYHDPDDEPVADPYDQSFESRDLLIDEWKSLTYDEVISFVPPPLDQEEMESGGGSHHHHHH
T3 sequence (Q16539 with tags, fused parts or gaps): as above
Chain of p38-alpha kinase (Q16539 whole entry): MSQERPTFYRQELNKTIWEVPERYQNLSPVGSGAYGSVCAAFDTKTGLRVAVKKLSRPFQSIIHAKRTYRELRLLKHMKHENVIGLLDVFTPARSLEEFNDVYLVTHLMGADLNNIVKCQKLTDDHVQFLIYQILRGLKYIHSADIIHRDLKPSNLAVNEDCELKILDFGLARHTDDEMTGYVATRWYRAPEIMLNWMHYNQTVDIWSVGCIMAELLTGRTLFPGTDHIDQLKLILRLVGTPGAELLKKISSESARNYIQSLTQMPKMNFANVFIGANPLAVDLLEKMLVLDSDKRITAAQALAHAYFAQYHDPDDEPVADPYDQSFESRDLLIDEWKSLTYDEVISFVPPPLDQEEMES
T2 sequence (P15056 with tags, fused parts or gaps V600E): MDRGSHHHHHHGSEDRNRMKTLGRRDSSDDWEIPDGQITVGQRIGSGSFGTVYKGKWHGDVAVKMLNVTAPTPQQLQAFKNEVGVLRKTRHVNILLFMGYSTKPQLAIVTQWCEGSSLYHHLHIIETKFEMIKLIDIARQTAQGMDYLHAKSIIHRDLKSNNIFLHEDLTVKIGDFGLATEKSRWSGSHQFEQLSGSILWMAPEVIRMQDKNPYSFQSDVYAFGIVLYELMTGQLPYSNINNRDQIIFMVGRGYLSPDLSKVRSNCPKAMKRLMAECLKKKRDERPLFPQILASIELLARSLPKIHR

## CC(C)(C)c1cc(NC(=O)Nc2cccc3ccccc23)n(-c2ccc(CN)cc2)n1 [Example 45]
p38-alpha kinase
  Time-dependent: No

## CC(C)(C)c1cc(NC(=O)Nc2cccc(Cl)c2Cl)n(-c2ccc3c(c2)CNCC3)n1 [Example 64, 1-(3-tert-butyl-1-(1,2,3,4-tetrahydroisoquinolin-7-yl)-1H-pyrazol-5-yl)-3-(2,3-dichlorophenyl)urea]
c-Abl kinase [1]
  EC50: 43 nM
Abl kinase
  ΔTm (° C.) relative to unphosphorylated Abl: 2.6 °C

## CC(C)(C)c1cc(NC(=O)Nc2cccc(Cl)c2Cl)n(-c2ccc3c(c2)C[C@@H](C(=O)O)NC3)n1 [Example 65, (3S)-6-(3-tert-butyl-5-(3-(2,3-dichlorophenyl)ureido)-1H-pyrazol-1-yl)-1,2,3,4-tetrahydroisoquinoline-3-carboxylic acid]
c-Abl kinase [1]
  EC50: 81 nM

## CC(C)(C)c1cc(NC(=O)Nc2cccc(Cl)c2Cl)n(-c2ccc3c(c2)CCNC3)n1 [Example 66, 1-(3-tert-butyl-1-(1,2,3,4-tetrahydroisoquinolin-6-yl)-1H-pyrazol-5-yl)-3-(2,3-dichlorophenyl)urea]
V599E Braf kinase
  ΔTm at 20 µM: 15.8 °C
c-Abl kinase [1]
  EC50: 30 nM
c-Abl kinase [2]
  Effect on binding of fluoroprobe PD 166326 to Abl kinase: concentration-dependent acceleration of the binding of fluoroprobe PD 166326
Abl kinase
  ΔTm (° C.) relative to unphosphorylated Abl: 3.2 °C

## CC(C)(C)c1cc(NC(=O)Nc2cccc3ccccc23)n(-c2ccc(CO)cc2)n1 [Example 72]
Phospho-p38-alpha kinase
  Competition with ATP: non-competitive with ATP
[3]
  IC50: 67 nM
[4]
  ΔTm (° C.) relative to unphosphorylated apo p38: 11.3 °C
[5]; doubly phosphorylated vs unphosphorylated p38-alpha, >1.0 = preference for unphosphorylated form
  Ratio IC50s: 1.7
[5]; ~24 nM enzyme, 1.0 uM SKF-86002, read-out: FP IC50 U-p38-alpha
  IC50: 40 nM
[6]
  ΔTm (° C.) relative to doubly phosphorylated p38: 8.1 °C
